EC50 data for 3 compounds are collected here from patent US10189816B2, “Substituted pyridines as inhibitors of human immunodeficiency virus replication” (priority 2015, dated 2019).

Structures are written as SMILES. pEC50: −log10 of the molar value. Where two headings read alike, the source gives them in different places. Some results are limits rather than exact numbers.

The test relates to NL-RLuc virus. Put plainly: Inhibition of HIV replication (NL-RLuc reporter virus in MT-2 cells, luciferase readout). It is filed as cell-based. The settings on record: Human immunodeficiency virus 1, MT2, 120 h; for pEC50: read-out: Activity; for EC50: read-out: EC50 μM. The method, boiled down: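 MT-2 cells infected with NL4-3-derived NL-RLuc reporter virus (Renilla luciferase replacing part of nef) with serial compound dilutions, RPMI 1640 + 10% FBS; 5 days. Growth by luciferase; EC50 from median effect equation, ≥2 experiments.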

With `Cc1cccc(Cl)c1CN1CCc2cc(-c3cnc(C)c([C@H](OC(C)(C)C)C(=O)O)c3N3CCC(C)(C)CC3)ccc2C1` [Compound 164, (S)-2-(tert-Butoxy)-2-(5-(2-(2-chloro-6-methylbenzyl)-1,2,3,4-tetrahydroisoquinolin-6-yl)-4-(4,4-dimethylpiperidin-1-yl)-2-methylpyridin-3-yl)acetic acid], the pEC50 was above 7.00 and the concentration giving a half-maximal response (EC50) (usually the concentration at which the effect is half-maximal) came out at 0.003 µM. Turning to `Cc1ccccc1CN1CCc2cc(-c3cnc(C)c([C@H](OC(C)(C)C)C(=O)O)c3N3CCC(C)(C)CC3)ccc2C1` [Compound 165, (S)-2-(tert-Butoxy)-2-(4-(4,4-dimethylpiperidin-1-yl)-2-methyl-5-(2-(2-methylbenzyl)-1,2,3,4-tetrahydroisoquinolin-6-yl)pyridin-3-yl)acetic acid], the pEC50 was above 7.00.

Turning to `Cc1cccc(Cl)c1CN1CCc2cc(-c3c(C)nc(C)c([C@H](OC(C)(C)C)C(=O)O)c3N3CCCC(C)(C)C3)ccc2C1` [Compound 166, (S)-2-(tert-butoxy)-2-(5-(2-(2-chloro-6-methylbenzyl)-1,2,3,4-tetrahydroisoquinolin-6-yl)-4-(3,3-dimethylpiperidin-1-yl)-2,6-dimethylpyridin-3-yl)acetic acid], the pEC50 was above 7.00 and the EC50 turned out to be 0.023 µM.
